From US8633312B2, “Dibenzocycloheptatone derivatives and pharmaceutical agents containing said compounds” (c-a-i-r biosciences GmbH, priority 2008, dated 2014) come the findings set out here.

Data set [1] concerns the target p38 MAP kinase (Homo sapiens, UniProt Q16539). The data set is described as follows: Inhibition of p38 MAP kinase, IC50 relative to SB-203580. It is filed as biochemical. As to conditions: relative activity = ratio IC50 (SB-203580)/IC50 (test compound); the higher the value, the more active.
Data set [2] deals with TNF-α. Kind of data set: Inhibition of TNF-α release, IC50 relative to SB-203580. The class given is cell-based. The conditions noted are these: relative activity = ratio IC50 (SB-203580)/IC50 (test compound); the higher the value, the more active. The text has this:
The action spectrum of the compounds as inhibitors of the release of TNF-α and IL-1β was investigated with the aid of the test systems as described by Donat C. and Laufer S. in Arch. Pharm. Pharm. Med. Chem. 333, Suppl. 1, 1-40, 2000. The IC50 values obtained were set in relation to the values for the compound SB-203580 of the formula
The numerical values given in the following table are therefore the relative activity, calculated from the ratio of IC50 (SB-203580)/IC50 (test compound). […] The compounds in which R1 represents H represent the prior art according to WO2006/120010.

Chain of p38 MAP kinase (Q16539 whole entry): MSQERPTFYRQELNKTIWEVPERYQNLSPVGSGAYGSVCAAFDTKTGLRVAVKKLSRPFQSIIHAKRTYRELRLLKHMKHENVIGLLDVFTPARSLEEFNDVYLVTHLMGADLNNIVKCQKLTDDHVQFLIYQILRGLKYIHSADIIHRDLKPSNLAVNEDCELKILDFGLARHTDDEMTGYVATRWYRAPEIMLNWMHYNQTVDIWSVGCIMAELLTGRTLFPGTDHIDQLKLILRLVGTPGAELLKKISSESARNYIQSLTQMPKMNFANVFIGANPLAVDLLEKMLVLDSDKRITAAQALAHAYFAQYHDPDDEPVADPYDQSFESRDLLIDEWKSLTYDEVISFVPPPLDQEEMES

For `O=C1c2ccc(Nc3ccc(F)cc3F)cc2CCc2ccc(OC3CCOCC3)cc21` [2-(2,4-Difluoroanilino)-7-(2-tetrahydropyran-4-yl-oxy)-10,11-dihydrodibenzo[a,d]-cyclohepten-5-one], in data set [1], the “p38 MAP kinase” value is listed as 0.74. In data set [2], the “Inhibition of TNF-α” value came out at 1.98.
For `O=C1c2ccc(Nc3ccc(F)cc3F)cc2CCc2ccc(OCCCO)cc21` [2-(2,4-Difluoroanilino)-7-(3-hydroxy-propoxy)-10,11-dihydrodibenzo[a,d]-cyclohepten-5-one] the same measures were 4.85 and greater than 5.
For `O=C1c2ccc(Nc3ccc(F)cc3F)cc2CCc2ccc(O)cc21` [2-(2,4-Difluoroanilino)-7-hydroxy-10,11-dihydrodibenzo[a,d]-cyclohepten-5-one], in that order: 2.03 and 1.80.
For `COc1ccc2c(c1)C(=O)c1ccc(Nc3ccc(F)cc3F)cc1CC2` [2-(2,4-Difluoroanilino)-7-methoxydibenzosuberone], in that order: 1.59 and 0.70.
For the molecule `O=C1c2ccc(Nc3ccc(F)cc3F)cc2CCc2cc(OCCO)ccc21` [2-(2,4-Difluorophenylamino)-8-(2-hydroxyethoxy)-10,11-dihydrodibenzo[a,d]-cyclohepten-5-one], the “p38 MAP kinase” value in data set [1] is 2.60.
In the case of `O=C1c2ccc(Nc3ccc(F)cc3F)cc2CCc2cc(OCCN3CCOCC3)ccc21` [2-(2,4-Difluorophenylamino)-8-(2-morpholin-4-yl-ethoxy)-10,11-dihydrodibenzo[a,d]cyclohepten-5-one], in data set [1], the “p38 MAP kinase” value stood at 2.53.
With `COc1ccc2c(c1)CCc1cc(Nc3ccc(F)cc3F)ccc1C2=O` [2-(2,4-Difluorophenylamino)-8-methoxy-10,11-dihydrodibenzo[a,d]cyclo-hepten-5-one], the “p38 MAP kinase” value in data set [1] is listed as 2.60.
For the molecule `COc1ccc2c(c1)C(=O)c1ccc(Nc3ccc(F)cc3N)cc1CC2` [2-(2-Amino-4-fluoroanilino)-7-methoxydibenzosuberone], in data set [1], the “p38 MAP kinase” value stood at 0.92. The “Inhibition of TNF-α” value in data set [2] amounted to 0.73.
For `Nc1ccccc1Nc1ccc2c(c1)CCc1ccc(OC[C@@H](O)CO)cc1C2=O` [2-(2-Aminoanilino)-7-[2S-,3-dihydroxypropoxy]-10,11-dihydrodibenzo[a,d]-cyclohepten-5-one], in that order: 1.54 and greater than 5.
For `COc1ccc2c(c1)C(=O)c1ccc(Nc3ccccc3N)cc1CC2` [2-(2-Aminoanilino)-7-methoxydibenzosuberone], in that order: 1.00 and 0.91.
Regarding `COc1ccc2c(c1)C(=O)c1ccc(Nc3ccccc3OC)cc1CC2` [2-(2-Methoxyanilino)-7-methoxydibenzosuberone], the “p38 MAP kinase” value in data set [1] is given as 0.11. Moreover, the “Inhibition of TNF-α” value in data set [2] is recorded as 0.18.
For `CC1(C)OC[C@H](COc2ccc3c(c2)C(=O)c2ccc(Nc4ccccc4N)cc2CC3)O1` [2-(Aminoanilino)-7-(S-1,2-isopropylideneglycer-3-yl)-10,11-dihydrodibenzo[a,d]-cyclohepten-5-one], in that order: 1.31 and greater than 5.
`Nc1ccc2c(c1)COc1cc(Nc3ccc(F)cc3N)ccc1C2=O` [3-(2-Amino-4-fluorophenylamino)-8-amino-6H-dibenzo[b,e]oxepin-11-one] gave a melting point of 194.5 °C. In addition, the “p38 MAP kinase” value in data set [1] came out at 1.15. Also, the “Inhibition of TNF-α” value in data set [2] was determined as 0.24.
Consider `Nc1ccc2c(c1)COc1cc(Nc3ccccc3N)ccc1C2=O` [3-(2-Aminophenylamino)-8-amino-6H-dibenzo[b,e]oxepin-11-one], for which the melting point turned out to be 203.9 °C. The “p38 MAP kinase” value in data set [1] stood at 0.93.
For `O=C1c2ccc(Nc3ccc(F)cc3F)cc2CCc2c(OCCN3CCOCC3)cccc21` [8-(2,4-Difluorophenylamino)-1-(2-morpholin-4-yl-ethoxy)-10,11-dihydrodibenzo[a,d]cyclo-hepten-5-one], the “p38 MAP kinase” value in data set [1] stood at 1.26.
`O=C1c2ccc(Nc3ccc(F)cc3F)cc2CCc2c(O)cccc21` [8-(2,4-Difluorophenylamino)-1-hydroxy-10,11-dihydrodibenzo[a,d]cyclohepten-5-one]: in data set [1], the “p38 MAP kinase” value is recorded as 2.26. Moreover, in data set [2], the “Inhibition of TNF-α” value came to 0.06.
The molecule `COc1ccccc1Nc1ccc2c(c1)OCc1cc(N)ccc1C2=O` [8-Amino-3-(2-methoxyphenylamino)-6H-dibenzo[b,e]oxepin-11-one] returned a melting point of 68.4 °C. In data set [1], the “p38 MAP kinase” value is given as 0.14. Also, in data set [2], the “Inhibition of TNF-α” value was determined as 0.04.
As to `O=C1c2ccc(Nc3ccc(F)cc3F)cc2CCc2c(OC[C@H](O)CO)cccc21` [(R)-8-(2,4-Difluorophenylamino)-1-(2,3-dihydroxypropoxy)-10,11-dihydrodibenzo-[a,d]cyclohepten-5-one], the “p38 MAP kinase” value in data set [1] came to 1.76.
`Nc1ccc2c(c1)COc1cc(Nc3ccc(F)cc3F)ccc1C2=O` [Example 82, 3-(2,4-Difluorophenylamino)-8-amino-6H-dibenzo[b,e]oxepin-11-one]: the melting point was 184 to 193 °C.
The same measure, in the same setting: for `Nc1ccc2c(c1)COc1cc(Nc3ccc(C(F)(F)F)cc3N)ccc1C2=O` [Example 92, 8-Amino-3-(2-amino-4-trifluoromethylphenylamino)-6H-dibenzo[b,e]oxepin-11-one] the value was 93.9 °C; for `O=C1c2ccc(-n3cnnn3)cc2COc2cc(Nc3ccc(F)cc3F)ccc21` [Example 95, 3-(2,4-Difluorophenylamino)-8-tetrazol-1-yl-6H-dibenzo[b,e]oxepin-11-one], 59 °C.
Regarding `O=C1c2ccc(NC(=O)N3CCOCC3)cc2COc2cc(Nc3ccc(F)cc3F)ccc21` [Morpholine-4-carboxylic acid [3-(2,4-difluorophenylamino)-1-oxo-6,11-dihydrodibenzo[b,e]oxepin-8-yl]amide], the melting point was 244.3 °C. For the same molecule, the “p38 MAP kinase” value in data set [1] is on record as 0.51.

Broadly, the melting point is the temperature, or range, at which the solid turns liquid.
